# Patent US12673947B2 (Cytosinlab Therapeutics Co., Ltd., priority 2020, dated 2026)
# Tests used:
# [1] = target: T1, FLT3 (Homo sapiens, UniProt P36888); test: FLT3 kinase in vitro inhibitory activity experiment (Caliper mobility shift, conversion rate); format: biochemical; settings: IC50 class, read-out: Enzyme activity FLT3
# T1 construct: purchased Carna 08-145
# T1 sequence (P36888 27-993): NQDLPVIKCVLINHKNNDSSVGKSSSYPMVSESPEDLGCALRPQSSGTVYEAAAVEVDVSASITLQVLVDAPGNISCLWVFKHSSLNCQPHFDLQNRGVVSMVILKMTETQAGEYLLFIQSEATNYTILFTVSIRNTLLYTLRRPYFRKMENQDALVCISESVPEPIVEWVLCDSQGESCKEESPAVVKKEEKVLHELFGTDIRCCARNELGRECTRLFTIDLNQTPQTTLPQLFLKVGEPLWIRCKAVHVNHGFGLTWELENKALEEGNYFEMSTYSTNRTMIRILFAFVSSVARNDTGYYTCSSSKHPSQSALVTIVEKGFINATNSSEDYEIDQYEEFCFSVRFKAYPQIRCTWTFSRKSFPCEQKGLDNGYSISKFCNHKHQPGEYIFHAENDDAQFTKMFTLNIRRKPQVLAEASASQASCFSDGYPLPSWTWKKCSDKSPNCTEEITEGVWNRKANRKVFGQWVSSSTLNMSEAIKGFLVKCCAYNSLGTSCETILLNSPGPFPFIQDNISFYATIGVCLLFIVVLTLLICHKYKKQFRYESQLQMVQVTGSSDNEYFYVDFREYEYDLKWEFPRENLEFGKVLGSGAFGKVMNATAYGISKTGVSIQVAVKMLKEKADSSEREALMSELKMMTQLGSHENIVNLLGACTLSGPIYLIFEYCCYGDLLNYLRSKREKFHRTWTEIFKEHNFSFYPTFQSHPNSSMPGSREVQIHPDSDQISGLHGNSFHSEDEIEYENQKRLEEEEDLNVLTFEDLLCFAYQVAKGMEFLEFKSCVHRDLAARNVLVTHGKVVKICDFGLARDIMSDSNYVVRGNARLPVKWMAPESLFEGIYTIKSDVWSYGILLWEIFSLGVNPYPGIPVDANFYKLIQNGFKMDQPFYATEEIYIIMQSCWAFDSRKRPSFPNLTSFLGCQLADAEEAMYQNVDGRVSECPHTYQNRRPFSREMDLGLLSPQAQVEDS
# Description: Biological Test Example 1: FLT3 Kinase In Vitro Inhibitory Activity Experiment
# Centrifuge (manufacturer: Eppendorf, model: 5430), microplate reader (manufacturer: Perkin Elmer, model: Caliper EZ Reader II), Echo 550 (manufacturer: Labcyte, model: Echo 550)
# 1. Kinase Reaction Process
# • (1) 1×Kinase buffer was prepared. • (2) Preparation of the serial compound dilutions: the initial stock (the concentration of the tested compound was 1 μM) was diluted by 3-fold into 10 concentrations, and was single-well detected. The compounds were series diluted to solutions of 10 different concentration (100-folds final concentration) in 384-well plates. 250 nl of solution was transferred to each well of 384-well plate by Echo550. 100% DMSO (250 nl) was added to negative control wells and positive control wells respectively. • (3) Kinase solution (2.5 times final concentration) was prepared with 1×Kinase buffer. • (4) 10 μL of kinase solution (2.5 times final concentration) was added to compound wells and positive control wells respectively: 1×Kinase buffer (10 μL) was added to the negative control wells. • (5) The solution was centrifuged at 1000 rpm for 30 seconds, shaked and mixed, and incubated at room temperature for 10 minutes. • (6) The mixed solution of ATP and Kinase substrate 2 (25/15 times final concentration) was prepared with 1×Kinase buffer. • (7) 15 μL of mixed solution ATP and Kinase substrate 2 (25/15 times final concentration) was added to initiated the reaction. • (8) 384 well plate was centrifuged at 1000 rpm for 30 seconds, shaked and mixed, then incubated at room temperature for 30 minutes. • (9) Stop solution (30 μL) was added to stop kinase reaction, and the solution was centrifuged at 1000 rpm for 30 seconds, shaked and mixed. • (10) The conversion rate was read with Caliper EZ Reader II. 2. Data Analysis Formula for Calculation
# Wherein: Conversion %_sample is the reading of the sample conversion; Conversion %_min: negative control well.
# [2] = test system: MV4;11 cells; test: MV4;11 in vitro inhibition of proliferation assay (CellTiter-Glo, 72 hours); format: cell-based; settings: Homo sapiens, MV4-11, 72 h, IC50 class, read-out: Inhibitory activity of cell proliferation MV4;11
# Excerpt: Biological Test Example 2: MV4;11 In Vitro Inhibition of Proliferation Assay
# The MV4;11 cell lines were purchased from the cell bank of the Chinese Academy of Sciences, IMDM medium (Gibco, catalog number 12440), fetal bovine serum (Gibco, catalog number 10099141C), penicillin-streptomycin antibiotics (Gibco, catalog number 15140122), DMSO (Sigma, catalog number D2650), Celltiter-Glo kit (CTG) (Promega, catalog number G7573), 384-well clear flat-bottom black cell culture plate (Corning, catalog number 3764), D300e digital dispenser (Tecan, catalog number D300e), SpectraMax i3x microplate reader (MOLECULAR DEVICES, catalog number i3x)
# MV4;11 cell was cultivated in IMDM, 10% fetal bovine serum, 1% penicillin-streptomycin antibiotics, and cell density was kept less than 1.0*10E6 cells per ml to ensure that it was always in logarithmic growth phase. Cell viability was greater than 95%.
# The compounds to be tested was diluted by 3 times from 10 uM with DMSO to 9 concentrations. 60 nl diluted compound was added to the cell culture plate and three duplicates were set up.
# The prepared MV4;11 cell suspension was added to the 384-well plate, and 20 microliters of cell suspension was added per well, i.e., each well contained 2000 MV4;11 cells, of which the final concentration of DMSO was 0.3%. The cell culture plate was placed in 37° C. and incubated in a 5% carbon dioxide incubator for 72 hours.
# 20 μL of Promega CellTiter-Glo reagent was added to per well, and the plate was incubated at room temperature for 10 minutes when the luminescence signals were stable. SpectraMax i3x microplate reader was used to read signals.
# The original data was converted into inhibition rate, and the IC50 value (half inhibition concentration) of the compound was determined by fitting the nonlinear four-parameter curve.
IC50 [1] [nM],IC50 [2] [nM],Compound
≤ 10,100 to 500,CCc1nc2c(N)ncc(-c3ccc(N4CCC(N5CCN(C)CC5)CC4)c(OC)c3)c2nc1N[C@H]1CC[C@H](O)C1 [Compound 69]
≤ 10,≤ 10,CCc1nc2c(N)ncc(-c3ccc(N4CCC(N5CCN(C)CC5)CC4)c(OC)c3)c2nc1N[C@@H]1CC[C@@H](O)C1 [Compound 70]
≤ 10,10 to 100,CCc1nc2c(N)ncc(-c3ccc(N4CCC(N5CCN(C)CC5)CC4)c(OC)c3)c2nc1N[C@H]1CC[C@@H](O)C1 [Compound 71]
≤ 10,≤ 10,CCc1nc2c(N)ncc(-c3ccc(N4CCC(N5CCN(C)CC5)CC4)c(OC)c3)c2nc1N[C@@H]1CC[C@H](O)C1 [Compound 72]
≤ 10,10 to 100,CCc1nc2c(N)ncc(-c3ccc(N4CCC(N5CCN(C)CC5)CC4)c(OC)c3)c2nc1NC(C)C [Compound 77]
≤ 10,10 to 100,CCc1nc2c(N)ncc(-c3ccc(N4CCC(N5CCN(C)CC5)CC4)c(OC)c3)c2nc1NC1CCCC1O (stereo not shown) [Compound 78]
≤ 10,10 to 100,CCc1nc2c(N)ncc(-c3ccc(N4CCC(N5CCN(C)CC5)CC4)c(OC)c3)c2nc1NC1CCOC1 (stereo not shown) [Compound 79]
≤ 10,10 to 100,CCc1nc2c(N)ncc(-c3ccc(N4CCC(N5CCN(C)CC5)CC4)c(OC)c3)c2nc1NC1CCCOC1 (stereo not shown) [Compound 83]
≤ 10,10 to 100,CCc1nc2c(N)ncc(-c3ccc(N4CCC(N5CCN(C)CC5)CC4)c(OC)c3)c2nc1NCC1CCOCC1 [Compound 85]
≤ 10,10 to 100,CCc1nc2c(N)ncc(-c3ccc(N4CCC(N5CCN(C)CC5)CC4)c(OC)c3)c2nc1NC1CCCC1 [Compound 92]
≤ 10,10 to 100,[2H]C([2H])([2H])N1CCN(C2CCN(c3ccc(-c4cnc(N)c5nc(CC)c(NC6CCOCC6)nc45)cc3OC)CC2)CC1 [Compound 121]
≤ 10,10 to 100,"CCc1nc2c(N)ncc(-c3cnn(C4CCN(C5CCN(C)CC5)CC4)c3)c2nc1NC1CCC(O)C1 (stereo not shown) [Compound 134, 3-((5-amino-3-ethyl-8-(1-(1′-methyl-[1,4′-bipiperidine]-4-yl)-1H-pyrazol-4-yl)pyridino[3,4-b]pyrazine-2-yl)amino)cyclopentan-1-ol]"
≤ 10,10 to 100,CCc1nc2c(N)ncc(-c3cnn(C4CCN(C5CCN(C)CC5)CC4)c3)c2nc1NC1CCOCC1 [Compound 135]
≤ 10,10 to 100,CCc1nc2c(N)ncc(-c3cnn(C4CCN(C)CC4)c3)c2nc1NC1CCOCC1 [Compound 136]
100 to 500,> 500,CCc1nc2c(N)ncc(-c3ccn(C)n3)c2nc1NC1CCOCC1 [Compound 138]
≤ 10,10 to 100,CCc1nc2c(N)ncc(-c3ccc(N4CCC(N5CCN(C)CC5)CC4)c(OC(F)F)c3)c2nc1NC1CCOCC1 [Compound 139]
≤ 10,10 to 100,CCc1nc2c(N)ncc(-c3cnn(CC4CCN(C5CCN(C)CC5)CC4)c3)c2nc1NC1CCOCC1 [Compound 155]
≤ 10,10 to 100,CCc1nc2c(N)ncc(-c3cnn(C4CCN(CCO)CC4)c3)c2nc1NC1CCOCC1 [Compound 156]
≤ 10,10 to 100,CCc1nc2c(N)ncc(-c3cnn(C4CCN(CC5CCNCC5)CC4)c3)c2nc1NC1CCOCC1 [Compound 157]
≤ 10,10 to 100,CCc1nc2c(N)ncc(-c3cnn(C4CCN(CC5CCN(C)CC5)CC4)c3)c2nc1NC1CCOCC1 [Compound 158]
≤ 10,10 to 100,CCc1nc2c(N)ncc(-c3cnn(C4CCN(C5CCNCC5)CC4)c3)c2nc1NC1CCOCC1 [Compound 160]
≤ 10,≤ 10,"CCc1nc2c(N)ncc(-c3cnn(C4CC(C)(C)N(C)C(C)(C)C4)c3)c2nc1N[C@@H]1CC[C@H](O)C1 [Compound 169, (1S,3R)-3-((5-amino-3-ethyl-8-(1-(1,2,2,6,6-pentamethylpiperidine-4-yl)-1H-pyrazol-4-yl)pyridino[3,4-b]pyrazine-2-yl)amino)cyclopentan-1-ol]"
≤ 10,≤ 10,CCc1nc2c(N)ncc(-c3cnn(C4CCN(c5cccnc5)CC4)c3)c2nc1N[C@@H]1CC[C@H](O)C1 [Compound 170]
≤ 10,≤ 10,CCc1nc2c(N)ncc(-c3cnn(C4CCN(c5ccnc(C)c5)CC4)c3)c2nc1N[C@@H]1CC[C@H](O)C1 [Compound 171]
≤ 10,≤ 10,CCc1nc2c(N)ncc(-c3cnn(C4CCN(c5ccncn5)CC4)c3)c2nc1N[C@@H]1CC[C@H](O)C1 [Compound 172]
≤ 10,≤ 10,CCc1nc2c(N)ncc(-c3cnn(C4CCN(c5ccnc(C)n5)CC4)c3)c2nc1N[C@@H]1CC[C@H](O)C1 [Compound 174]
≤ 10,≤ 10,CCc1nc2c(N)ncc(-c3cnn(C4CCN(c5cccnn5)CC4)c3)c2nc1N[C@@H]1CC[C@H](O)C1 [Compound 175]
≤ 10,10 to 100,CCc1nc2c(N)ncc(-c3cnn(-c4ccccc4)c3)c2nc1N[C@@H]1CC[C@H](O)C1 [Compound 176]
≤ 10,≤ 10,"CCc1nc2c(N)ncc(-c3cnn(-c4ccc(C)nc4)c3)c2nc1N[C@@H]1CC[C@H](O)C1 [Compound 177, (1S,3R)-3-((5-amino-3-ethyl-8-(1-(6-methylpyridin-3-yl)-1H-pyrazol-4-yl)pyridino[3,4-b]pyrazin-2-yl)amino)cyclopentan-1-ol]"

Compound,IC50 [1] [nM],IC50 [2] [nM]
CCc1nc2c(N)ncc(-c3cnn(C4C[C@H]5CC[C@@H](C4)N5C(C)C)c3)c2nc1N[C@@H]1CC[C@H](O)C1 (stereo partly shown) [Compound 166],≤ 10,≤ 10
CCc1nc2c(N)ncc(-c3cnn(C4C[C@H]5CC[C@@H](C4)N5CC(C)C)c3)c2nc1N[C@@H]1CC[C@H](O)C1 (stereo partly shown) [Compound 167],≤ 10,≤ 10
CCc1nc2c(N)ncc(-c3cnn(C4C[C@H]5CC[C@@H](C4)N5S(C)(=O)=O)c3)c2nc1N[C@@H]1CC[C@H](O)C1 (stereo partly shown) [Compound 168],≤ 10,≤ 10
